Data published in US9518018B2, “3-alkoxy, thioalkyl and amino-4-amino-6-(substituted)picolinates and their use as herbicides” (Dow AgroSciences LLC, priority 2011, dated 2016).

Tested on: desired test plant species
Assay: Foliar-applied postemergence herbicidal activity in direct seeded rice (Table 6)
Assay type: in vivo
Details: 21 DAA
From the text: Seeds or nutlets of the desired test plant species were planted in a soil matrix prepared by mixing a loam soil (43 percent silt, 19 percent clay, and 38 percent sand, with a pH of about 8.1 and an organic matter content of about 1.5 percent) and river sand in an 80 to 20 ratio. The soil matrix was contained in plastic pots with a surface area of 139.7 cm^2. When required to ensure good germination and healthy plants, a fungicide treatment and/or other chemical or physical treatment was applied. The plants were grown for 10-17 d in a greenhouse with an approximate 14-h photoperiod which was maintained at about 29° C. during the day and 26° C. during the night. Nutrients and water were added on a regular basis and supplemental lighting was provided with overhead metal halide 1000-Watt lamps as necessary. The plants were employed for testing when they reached the second or third true leaf stage. Treatments consisted of compounds 45, 34, and 66. Weighed amounts of technical compounds were placed in individual 25 mL glass vials and dissolved in 8 mL of 97:3 v/v acetone-DMSO to obtain stock solutions. […] The spray application solutions were prepared by removing 4 mL of the stock solution and diluting with 4 mL of 97:3 v/v acetone-DMSO and continued serial dilution to obtain 1⁄2×, 1⁄4×, 1⁄8×, and 1/16× rates of the high rate. Spray solutions were diluted to the appropriate final concentrations with the addition of 8 mL of an aqueous mixture of 1.875% (v/v) Agri-dex crop oil concentrate. The final 12-mL spray solutions each contained 1.25% (v/v) Agri-dex crop oil concentrate, 32.3% acetone, and 1.0% DMSO. Compound requirements are based upon a 12 mL application volume at a rate of 187 L/ha. Spray solutions were applied to the plant material with an overhead Mandel track sprayer equipped with […] nozzles calibrated to deliver 187 L/ha over an application area of 0.503 square meters (m^2) at a spray height of 18 inches ([…]) above average plant canopy height. Control plants were sprayed in the same manner with the solvent blank. The treated plants and control plants were placed in a greenhouse as described above and watered by sub-irrigation to prevent wash-off of the test compounds. After approximately 3 weeks, the condition of the test plants, compared with that of the untreated plants, was determined visually and scored on a scale of 0 to 100 percent where 0 corresponds to no injury and 100 corresponds to complete kill. By applying the well-accepted probit analysis as described by J. Berkson in Journal of the […], 48, 565 (1953) and by D. Finney in “Probit Analysis” Cambridge University Press (1952) or by plotting the mean data and fitting a logarithmic curve to the portion of the data where there was a dose response using Microsoft Excel®, the above data can be used to calculate GR50 and GR90 values, which are defined as growth reduction factors that correspond to the effective dose of herbicide required to kill or control 50 percent or 90 percent, respectively, of a target plant.

Question: Which results are given for `COc1c(C(=O)OCc2ccccc2)nc(-c2ccc(Cl)c(OC)c2F)c(F)c1N` [Compound 66, benzyl 4-amino-6-(4-chloro-2-fluoro-3-methoxyphenyl)-5-fluoro-3-methoxypicolinate]?
Answer: Mean Visual Injury (%)-21 Days After Application ECHCO (ECHCO (Echinochloa colonum, junglerice), 4.38 g ae/ha): 80%; Mean Visual Injury (%)-21 Days After Application ECHCO (ECHCO (Echinochloa colonum, junglerice), 8.75 g ae/ha): 89%; Mean Visual Injury (%)-21 Days After Application ECHCO (ECHCO (Echinochloa colonum, junglerice), 17.5 g ae/ha): 93%; Mean Visual Injury (%)-21 Days After Application ECHCO (ECHCO (Echinochloa colonum, junglerice), 35 g ae/ha): 94%; Mean Visual Injury (%)-21 Days After Application ECHCO (ECHCO (Echinochloa colonum, junglerice), 70 g ae/ha): 94%; GR50 ECHCO (ECHCO (Echinochloa colonum, junglerice), dose to kill or control 50 percent): <2.19 g ae/ha; GR90 ECHCO (ECHCO (Echinochloa colonum, junglerice), dose to kill or control 90 percent): 11.6 g ae/ha; Mean Visual Injury (%)-21 Days After Application LEFCH (LEFCH (Leptochloa chinensis, Chinese sprangletop), 2.19 g ae/ha): 0%; Mean Visual Injury (%)-21 Days After Application LEFCH (LEFCH (Leptochloa chinensis, Chinese sprangletop), 4.38 g ae/ha): 7%; Mean Visual Injury (%)-21 Days After Application LEFCH (LEFCH (Leptochloa chinensis, Chinese sprangletop), 8.75 g ae/ha): 15%; Mean Visual Injury (%)-21 Days After Application LEFCH (LEFCH (Leptochloa chinensis, Chinese sprangletop), 17.5 g ae/ha): 32%; Mean Visual Injury (%)-21 Days After Application LEFCH (LEFCH (Leptochloa chinensis, Chinese sprangletop), 35 g ae/ha): 26%; Mean Visual Injury (%)-21 Days After Application LEFCH (LEFCH (Leptochloa chinensis, Chinese sprangletop), 70 g ae/ha): 40%; GR50 LEFCH (LEFCH (Leptochloa chinensis, Chinese sprangletop), dose to kill or control 50 percent): >70 g ae/ha; GR90 LEFCH (LEFCH (Leptochloa chinensis, Chinese sprangletop), dose to kill or control 90 percent): >70 g ae/ha; Mean Visual Injury (%)-21 Days After Application ORYSA ‘Clearfield 171’ (ORYSA (Oryza sativa ‘Clearfield 171’, rice), 2.19 g ae/ha): 0%; Mean Visual Injury (%)-21 Days After Application ORYSA ‘Clearfield 171’ (ORYSA (Oryza sativa ‘Clearfield 171’, rice), 4.38 g ae/ha): 0%; Mean Visual Injury (%)-21 Days After Application ORYSA ‘Clearfield 171’ (ORYSA (Oryza sativa ‘Clearfield 171’, rice), 8.75 g ae/ha): 1%; Mean Visual Injury (%)-21 Days After Application ORYSA ‘Clearfield 171’ (ORYSA (Oryza sativa ‘Clearfield 171’, rice), 17.5 g ae/ha): 2%; Mean Visual Injury (%)-21 Days After Application ORYSA ‘Clearfield 171’ (ORYSA (Oryza sativa ‘Clearfield 171’, rice), 35 g ae/ha): 6%; Mean Visual Injury (%)-21 Days After Application ORYSA ‘Clearfield 171’ (ORYSA (Oryza sativa ‘Clearfield 171’, rice), 70 g ae/ha): 8%; GR50 ORYSA ‘Clearfield 171’ (ORYSA (Oryza sativa ‘Clearfield 171’, rice), dose to kill or control 50 percent): >70 g ae/ha; GR90 ORYSA ‘Clearfield 171’ (ORYSA (Oryza sativa ‘Clearfield 171’, rice), dose to kill or control 90 percent): >70 g ae/ha; Mean Visual Injury (%)-21 Days After Application ORYSA ‘Wells’ (ORYSA (Oryza sativa ‘Wells’, rice), 2.19 g ae/ha): 0%; Mean Visual Injury (%)-21 Days After Application ORYSA ‘Wells’ (ORYSA (Oryza sativa ‘Wells’, rice), 4.38 g ae/ha): 0%; Mean Visual Injury (%)-21 Days After Application ORYSA ‘Wells’ (ORYSA (Oryza sativa ‘Wells’, rice), 8.75 g ae/ha): 0%; Mean Visual Injury (%)-21 Days After Application ORYSA ‘Wells’ (ORYSA (Oryza sativa ‘Wells’, rice), 17.5 g ae/ha): 2%; Mean Visual Injury (%)-21 Days After Application ORYSA ‘Wells’ (ORYSA (Oryza sativa ‘Wells’, rice), 35 g ae/ha): 0%; Mean Visual Injury (%)-21 Days After Application ORYSA ‘Wells’ (ORYSA (Oryza sativa ‘Wells’, rice), 70 g ae/ha): 0%; GR50 ORYSA ‘Wells’ (ORYSA (Oryza sativa ‘Wells’, rice), dose to kill or control 50 percent): >70 g ae/ha; GR90 ORYSA ‘Wells’ (ORYSA (Oryza sativa ‘Wells’, rice), dose to kill or control 90 percent): >70 g ae/ha; Mean Visual Injury (%)-21 Days After Application SCPJU (SCPJU (Scirpus juncoides, Japanese bulrush), 2.19 g ae/ha): 100%; Mean Visual Injury (%)-21 Days After Application SCPJU (SCPJU (Scirpus juncoides, Japanese bulrush), 4.38 g ae/ha): 88%; Mean Visual Injury (%)-21 Days After Application SCPJU (SCPJU (Scirpus juncoides, Japanese bulrush), 8.75 g ae/ha): 100%; Mean Visual Injury (%)-21 Days After Application SCPJU (SCPJU (Scirpus juncoides, Japanese bulrush), 17.5 g ae/ha): 100%; Mean Visual Injury (%)-21 Days After Application SCPJU (SCPJU (Scirpus juncoides, Japanese bulrush), 35 g ae/ha): 100%; Mean Visual Injury (%)-21 Days After Application SCPJU (SCPJU (Scirpus juncoides, Japanese bulrush), 70 g ae/ha): 100%; GR50 SCPJU (SCPJU (Scirpus juncoides, Japanese bulrush), dose to kill or control 50 percent): <42.19 g ae/ha; GR90 SCPJU (SCPJU (Scirpus juncoides, Japanese bulrush), dose to kill or control 90 percent): 4.9 g ae/ha; Mean Visual Injury (%)-21 Days After Application SEBEX (SEBEX (Sesbania exaltata, hemp sesbania), 2.19 g ae/ha): 53%; Mean Visual Injury (%)-21 Days After Application SEBEX (SEBEX (Sesbania exaltata, hemp sesbania), 4.38 g ae/ha): 90%; Mean Visual Injury (%)-21 Days After Application SEBEX (SEBEX (Sesbania exaltata, hemp sesbania), 8.75 g ae/ha): 99%; Mean Visual Injury (%)-21 Days After Application SEBEX (SEBEX (Sesbania exaltata, hemp sesbania), 17.5 g ae/ha): 99%; Mean Visual Injury (%)-21 Days After Application SEBEX (SEBEX (Sesbania exaltata, hemp sesbania), 35 g ae/ha): 100%; Mean Visual Injury (%)-21 Days After Application SEBEX (SEBEX (Sesbania exaltata, hemp sesbania), 70 g ae/ha): 100%; GR50 SEBEX (SEBEX (Sesbania exaltata, hemp sesbania), dose to kill or control 50 percent): <2.19 g ae/ha; GR90 SEBEX (SEBEX (Sesbania exaltata, hemp sesbania), dose to kill or control 90 percent): 5.8 g ae/ha
